One assay relates to ReninAAV UNx db/db mice. In words: ReninAAV UNx db/db mice model of diabetic nephropathy, urine biomarkers. The class given is in vivo. To be noted: 10 mg/kg subcutaneously once daily, compared to vehicle, spot urine at termination day 77. The procedure:
28 female mice (BKS.Cg-Dock7m+/+Lepradb/db BLKS, 5 weeks of age) were transferred to the Gubra Research animal unit. Throughout the habituation and study period, the animals were housed in a light-, temperature-, and humidity-controlled room with free access to food and water. All animal experiments were conducted in accordance with Gubra's bioethical guidelines, which are fully compliant with internationally accepted principles for the care and use of laboratory animals. The animals were group-housed until uni-nephrectomies, then single-housed.
The animals were terminated on day 77; blood was taken for later analysis, body weight was recorded, and spot urine was collected.
Compound A was provided by Phlogo ApS, Copenhagen, Denmark (10 mg/ml miliQ water diluted to the dose formulations). Compound A was provided as a dimeric peptide comprising two copies of the sequence AQFHRHKQLIRFLKRA (SEQ ID NO: 1). […]
Urine samples were stored at minus 80° C. until analysis. […] Urine albumin was measured using a commercial ELISA kit (Bethyl Laboratories, Inc.), according to the manufacturer's instructions, and urine creatinine was measured using a commercial kit (Roche Diagnostics) on the Cobas c 501 autoanalyzer, according to the manufacturer's instructions. Urinary KIM-1 was measured using a commercial ELISA kit (R&D Systems) according to the manufacturer's instructions.

For another assay, the target named is T1, type I IL-4R (Homo sapiens, UniProt P24394).
T1 sequence (P24394 26-825): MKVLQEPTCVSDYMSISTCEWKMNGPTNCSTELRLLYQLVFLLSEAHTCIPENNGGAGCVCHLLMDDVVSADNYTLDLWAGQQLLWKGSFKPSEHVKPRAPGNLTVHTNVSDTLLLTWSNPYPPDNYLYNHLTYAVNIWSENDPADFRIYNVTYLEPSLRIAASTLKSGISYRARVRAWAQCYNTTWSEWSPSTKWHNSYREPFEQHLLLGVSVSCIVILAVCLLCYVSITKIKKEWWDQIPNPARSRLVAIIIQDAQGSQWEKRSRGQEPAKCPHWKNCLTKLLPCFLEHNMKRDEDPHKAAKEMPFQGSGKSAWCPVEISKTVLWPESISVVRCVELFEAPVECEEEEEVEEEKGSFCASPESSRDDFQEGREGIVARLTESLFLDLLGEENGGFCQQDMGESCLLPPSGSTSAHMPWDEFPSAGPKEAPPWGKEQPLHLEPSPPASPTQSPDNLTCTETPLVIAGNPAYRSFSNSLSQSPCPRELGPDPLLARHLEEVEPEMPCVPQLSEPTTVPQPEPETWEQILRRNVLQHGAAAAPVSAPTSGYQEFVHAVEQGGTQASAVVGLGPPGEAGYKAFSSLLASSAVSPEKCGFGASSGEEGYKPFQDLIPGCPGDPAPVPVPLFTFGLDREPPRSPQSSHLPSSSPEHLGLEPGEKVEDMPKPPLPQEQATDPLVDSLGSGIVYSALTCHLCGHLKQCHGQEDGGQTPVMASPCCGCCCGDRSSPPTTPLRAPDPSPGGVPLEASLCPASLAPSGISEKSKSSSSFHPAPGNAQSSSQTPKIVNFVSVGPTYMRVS
T1 sequence (P31785 23-369 partner): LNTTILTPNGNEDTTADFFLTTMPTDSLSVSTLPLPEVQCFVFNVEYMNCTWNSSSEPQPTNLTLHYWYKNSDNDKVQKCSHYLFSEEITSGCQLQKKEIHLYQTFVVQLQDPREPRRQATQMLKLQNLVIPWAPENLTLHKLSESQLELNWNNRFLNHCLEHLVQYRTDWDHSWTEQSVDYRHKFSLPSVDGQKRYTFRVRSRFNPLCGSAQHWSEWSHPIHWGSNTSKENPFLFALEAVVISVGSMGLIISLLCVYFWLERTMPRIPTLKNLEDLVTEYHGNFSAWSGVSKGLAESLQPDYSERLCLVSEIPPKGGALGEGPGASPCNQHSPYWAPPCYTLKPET
The note with it: Klementiv 2013; cited from earlier work.

The target in a further assay is T2, type II IL-4R (Homo sapiens, UniProt P24394).
T2 sequence (P24394 26-825): T1 sequence (P24394 26-825)
The note with it: Klementiv 2013; cited from earlier work.

The next assay deals with IL-4 receptors. To be noted: cited from earlier work.
A further assay concerns macrophages. The note with it: cited from earlier work.

“Also recorded” adds a separate entry of the source. Where no end group is shown, it is not given here. [ ]: non-standard residue; d: D form. βAla = NCCC(=O)O

With “Compound A: dimer of SEQ ID NO:1 (AQFHRHKQLIRFLKRA), two copies connected via their C-terminal through a lysine-beta-alanine linker (AQFHRHKQLIRFLKRAK[βAla]; also: dimer of two copies joined at C-termini via lysine-beta-alanine linker, Rink amide)”, in the assay on ReninAAV UNx db/db mice, the “ACR (urinary albumin corrected for creatinine)” value is “significantly decreased; also recorded: significantly reduced” and the “KIM-1/CR (urinary KIM-1 corrected for creatinine)” value is reported as “significantly decreased; also recorded: significantly reduced”.
On to “AQFHRHKQLIRFLKRA [SEQ ID NO:1, IL-4 derived peptide, variant of AA71-AA86 of IL-4 with two amino acid substitutions]”, for which the “Mode of action on type I IL-4R” value with type I IL-4R was “high affinity partial agonist”. The “Mode of action on type II IL-4R” value in the assay with type II IL-4R was “antagonist”. In the assay on IL-4 receptors, the “Binding to the IL-4 receptors” value is “capable of binding to the IL-4 receptors”. In addition, in the assay on macrophages, the Macrophage activation result is “inhibiting macrophage activation”.

The values above are taken from patent publication US12440535B2, “IL-4 derived peptide fragments for use in the treatment of diabetic nephropathy” (SERODUS APS, priority 2022, dated 2025).
